US10213451B2, “Methods and compounds for modulating the secretion or expression of adhesion proteins or angiopoietins of cells” (PACIFIC ARROW LIMITED, priority 2004, dated 2019)
Several values for one entry are separate records, joined by “and”; a condition that tells them apart may be missing. Equal entries are not always repeated.

Assays:
[1] = tested on: Glypican expression in ES2 cells; assay: Microarray gene expression, Table 13; assay type: cell-based, human
Description: Y/D is the ratio (in folds) of gene expression in cells treated with compound Y as compared with those of the no drug control (D),
YM/D is the ratio of gene expression in cells treated with compound YM (ACH-Y, Y without sugar moiety) compared with those of the no drug control (D)
Cell culture and drug-treatment.: ES2 cells were seeded in a T-25 flask with 4.5 million cells per flask for 24 hours. Cell culture was replaced with fresh medium with xanifolia-Y (Y) or DMSO no drug control (D) for 24 hours. Cells were then harvested for RNA isolation. Three experiments were done.
RNA extraction, labeling, hybridization, and data analysis. RNA was extracted from tumor cells using the Qiagen RNeasy Kit. RNA quality and quantity was checked by the Agilent BioAnalyzer and the NanoDrop® ND-1000 spectrophotometer respectively before further manipulation. The first and second cDNA strands were synthesized from 20 ng of total RNA using the Affymetrix T7 oligo(dT) primer protocol and kit for the two-cycle amplification. To produce amplified biotin-labeled-cRNA, the cDNA was […] by in vitro transcription using the MegaScript kit from Ambion. 15.0 μg of the labeled cRNA was fragmented and re-checked for concentration using the NanoDrop® ND-1000 spectrophotometer. A hybridization cocktail containing Affymetrix spike-in controls and fragmented labeled cRNA was loaded onto the Human U133 Plus 2.0 GeneChip® oligonucleotide array. The Affymetrix array (Affymetrix, Inc. Santa Clara, Calif.) is comprised of over 1,300,000 unique oligonucleotide features that represent greater than 38,500 well-substantiated human genes. The array was hybridized for 16 hours at 45° C. with rotation at 60 rpm then washed and stained with a strepavidin, R-phycoerythrin conjugate stain on the Affymetrix Fluidicis Station 450. Signal amplification was done using biotinylated antistreptavidin. The arrays were scanned using the GeneChip® 3000 confocal laser scanner with autoloader. The images were analyzed and quality control metrics recorded using Affymetrix GCOS software version 1.4. Lastly, the expression value for each gene was calculated using dChip PM-only model based or Plier algorithm.
Pairwise comparisons were made as follows: Treated vs. Control (Y vs. D), Modified Drug vs Control (YM/ACY-H vs. D) and Treated vs. Modified Drug (Y vs. YM/ACH-Y) Cel files analyzed using the Bioconductor package of R Statistical programming. Limma analysis generated a reasonable number of changing genes between the samples.
The raw data in the .CEL files were normalized by the GCRMA method (robust multi-array analysis). It is implemented in Bioconductor (http://www.bioconductor.org/). […]

[2] = tested on: Fibronectin secretion from ES2 cells; assay: Fibronectin secretion (Western blot), ES2 cells; assay type: cell-based, human
[3] = ES2 cells, 10 ug/ml, listed as xanifolia-Y

Row | SMILES | GPC6 Glypican 6, gene expression ratio to no drug control (D) ([1]; probe 227059_at) | GPC6 Glypican 6, gene expression ratio to no drug control (D) ([1]; probe 243865_x_at) | % inhibition of Fibronectin secretion ([2]; ES2 cells, 10 ug/ml) | Fibronectin secreted / FN band intensity, % of DMSO control ([2]; ES2 cells, 20 ug/ml) | inhibition at 20 µg/mL ([2]; Homo sapiens, ES-2, ES2 cells, 20 ug/ml) | secretion of Fibronectin to medium over time ([2]; ES2 cells, 10 ug/ml, 1 to 24 hour) | reduction of Fibronectin secretion ([2]; ES2 cells, 10 ug/ml, 18 hours) | reduction of Fibronectin secretion ([2]; ES2 cells, 10 ug/ml, 24 hours, listed as Y) | reduction of Fibronectin secretion ([2]; ES2 cells, 10 ug/ml, 24 hours, listed as xanifolia-Y) | reduction of FN secretion at 24 hours after removal of drug ([2]; ES2 cells, 10 ug/ml, drug removed at 4 or 8 hours) | Fibronectin secreted / FN band intensity, % of DMSO control ([2]; ES2 cells, 10 ug/ml, listed as Y) | % inhibition of Fibronectin secretion ([2]; ES2 cells, 10 ug/ml, listed as Y3) | % inhibition of Fibronectin secretion [2, 3] | Fibronectin secreted / FN band intensity, % of DMSO control [2, 3] | earliest time at which inhibition of Fibronectin was observed ([2]; ES2 cells, after drug-treatment) | change in Fibronectin secretion ([2]; ES2 cells, first 7 hours of treatment)
1 | C/C=C(/C)C(=O)O[C@H]1[C@H](OC(=O)/C(C)=C\C)[C@@]2(CO)C(CC1(C)C)C1=CCC3[C@@]4(C)CC[C@H](O)C(C)(C)C4CC[C@@]3(C)[C@]1(C)[C@@H](O)[C@H]2O (stereo partly drawn) [ACH-Y] | −1.8 folds | −2.0 folds | less (or not observed) | 53%-75% | 48% |  |  |  |  |  |  |  |  |  |  | 
2 | C/C=C(/C)C(=O)O[C@H]1[C@H](OC(=O)/C(C)=C\C)[C@@]2(CO)C(CC1(C)C)C1=CCC3[C@@]4(C)CC[C@H](O[C@@H]5OC(C(=O)O)[C@@H](O)C(O[C@@H]6O[C@@H](CO)C(O)C6O)C5O[C@@H]5OC(CO)[C@H](O)C(O)C5O)C(C)(C)C4CC[C@@]3(C)[C@]1(C)[C@@H](O)[C@H]2O (stereo partly drawn) [Xanifolia-Y, 3-O-[β-D-galactopyranosyl (1→2)]-α-L-arabinofuranosy (1→3)-β-D-glucuronopyranosyl-21,22-O-diangeloyl-3β, 15α, 16α, 21β, 22α, 28-hexahydroxyolean-12-ene] | −2.2 folds | −2.7 folds |  |  |  | no or only minimally secretion of Fibronectin | 40% | 31% and 30-40% and 38% and 46% | 46% | over 50% | 62% and 51% and 54% | 47% | 49% | 54% | 8 h | not noticeable
